Data: US20240059710A1, “KRAS G12D Inhibitors” (Jacobio Pharmaceuticals Co., Ltd., priority 2020, published 2024)
Like-named read-outs stand apart in the source and are kept apart here.

What was measured:
[1] = target: T1, GDP-loaded HIS-KRAS (G12D, aa 1-169) (Homo sapiens, UniProt P01116, G12D); assay: SOS1 catalyzed nucleotide exchange assay; assay type: biochemical; conditions: SOS1 ExD, TR-FRET, 4 hours at 25° C.
T1 construct: GDP-loaded HIS-KRAS (G12D, aa 1-169)
Protocol: 1. SOS1 Catalyzed Nucleotide Exchange Assay
GDP-loaded HIS-KRAS (G12D, aa 1-169) was pre-incubated with a compound in the presence of 10 nM GDP in a 384-well plate (Greiner) for 15 min, then purified SOS1 ExD (Flag tag, aa 564-1049), BODIPY™ FL GTP (Invitrogen) and MAb (monoclonal antibody) Anti 6HIS-Tb cryptate Gold (Cisbio) were added to the assay wells (Final concentration: 1.5 nM GDP-loaded HIS-KRAS (G12D), 5 nM GDP, 0.5 μM SOS1 ExD, 80 nM BODIPY™ FL GTP, 52.5 ng/mL MAb Anti 6HIS-Tb cryptate Gold) and incubated for 4 hours at 25° C. Wells containing same percent of DMSO served as vehicle control, and wells without KRAS served as low control. TR-FRET signals were read on Tecan Spark multimode microplate reader. The parameters were F486: Excitation 340 nm, Emission 486 nm, Lag time 100 μs, Integration time 200 μs; F515: Excitation 340 nm, Emission 515 nm, Lag time 100 μs, Integration time 200 μs. TR-FRET ratios for each individual wells were calculated by equation: TR-FRET ratio=(Signal F515/Signal F486)*10000. The percent of activation of compounds treated wells were normalized between vehicle control and low control (% Activation=(TR-FRET ratioCompound treated−TR-FRET ratioLow control)/(TR-FRET ratioVehicle control−TR-FRET ratioLow control)*100%). Then the data were analyzed either by fitting a 4-parameter logistic model or by Excel to calculate IC50 values.

[2] = target: T2, GppNp-loaded HIS-KRAS (G12D, aa 1-169) / cRAF RBD (Homo sapiens, UniProt P01116, G12D); assay: GTP-KRAS and cRAF interaction assay; assay type: binding; conditions: HTRF, 2 hours at 25° C.
T2 construct: GppNp-loaded HIS-KRAS (G12D, aa 1-169)
T2 sequence (P01116 1-169 isoform P01116-2 G12D): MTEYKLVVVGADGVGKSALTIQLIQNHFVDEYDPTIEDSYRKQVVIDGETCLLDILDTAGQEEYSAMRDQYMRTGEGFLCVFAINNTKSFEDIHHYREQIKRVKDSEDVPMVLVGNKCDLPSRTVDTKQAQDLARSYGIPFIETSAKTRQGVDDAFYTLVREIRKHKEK
Protocol: 2. GTP-KRAS and cRAF Interaction Assay
GppNp-loaded HIS-KRAS (G12D, aa 1-169) was pre-incubated with a compound in the presence of 200 µM GTP in a 384-well plate (Greiner) for 15 min, then cRAF RBD (GST tag, aa 50-132, CreativeBioMart), MAb Anti GST-d2 (Cisbio) and MAb Anti 6HIS-Tb cryptate Gold (Cisbio) were added to the assay wells (Final concentration: 2.0 nM GppNp-loaded HIS-KRAS (G12D), 100 μM GTP, 35 nM cRAF RBD, 1 μg/mL MAb Anti GST-d2, 52.5 ng/mL MAb Anti 6HIS-Tb cryptate Gold) and incubated for 2 hours at 25° C. Wells containing same percent of DMSO served as vehicle control, and wells without KRAS served as low control. HTRF signals were read on Tecan Spark multimode microplate reader and HTRF ratios were calculated under manufacturer's instructions. The percent of activation of compounds treated wells were normalized between vehicle control and low control (% Activation=(HTRF ratioCompound treated−HTRF ratioLow control)/(HTRF ratioVehicle control−HTRF ratioLow control)*100). Then the data were analyzed either by fitting a 4-parameter logistic model or by Excel to calculate IC50 values.

[3] = test system: AGS cells expressing KRAS G12D; assay: Phospho-ERK1/2(THR202/TYR204) HTRF assay; assay type: cell-based; conditions: 2 hours incubation, read-out: AGS p-ERK IC50
Protocol: AGS cells expressing KRAS G12D were cultured in F12K medium (Gibco) containing 10% fetal bovine serum (Gibco). The AGS cells in culture medium were seeded in 96-well plates at a concentration of 40,000 cells/well and then put in a 37° C./5% CO2 cell incubator to incubate overnight. The next day, culture medium was removed and the compound diluted in assay medium (F12K, 0.1% FBS) was added in each well. After 2 hours incubation in a 37° C./5% CO2 cell incubator, the assay medium in 96-well plates was removed, then 50 μL of 1× blocking reagent-supplemented lysis buffer (Cisbio) was added and the plates were incubated at 25° C. for 45 min with shaking. 10 μL of cell lysates from the 96-well plates were transferred to a 384-well plate (Greiner) containing 2.5 μL/well HTRF® pre-mixed antibodies (Cisbio 64AERPEH). Incubate 4 hours at 25° C. and then read HTRF signals on Tecan Spark multimode microplate reader. The data were analyzed using a 4-parameter logistic model to calculate IC50 values.

[4] = test system: AGS; assay: Cell growth inhibition assay (AGS); assay type: cell-based; conditions: 6 days incubation, CellTiter-Glo
Protocol: (§1) 4. Cell Growth Inhibition Assay
AGS cultured in F12K medium (Gibco) containing 10% fetal bovine serum (Gibco). Cells in culture medium were plated in 96-well plates at a concentration of 500 cells/well ([…]) and allowed to attach overnight.
(§2) The next day, compounds were diluted in culture medium and added to the plates. After 6 days incubation in a 37° C./5% CO2 cell incubator, the cell viability was detected by CellTiter-Glo® Luminescent Cell Viability Assay kit (Promega). Luminescent signals were read on Tecan Spark multimode microplate reader and analyzed using a 4-parameter logistic model to calculate IC50 values.

[5] = test system: AsPC-1; assay: Cell growth inhibition assay (AsPC-1); assay type: cell-based; conditions: AsPC-1, 6 days incubation, CellTiter-Glo
Protocol: as §1
AsPC-1 cultured in RPMI-1640 medium (Gibco) containing 10% fetal bovine serum (Gibco). Cells in culture medium were plated in 96-well plates at a concentration of 1000 cells/well ([…]) and allowed to attach overnight.
as §2

T1 sequence (P01116 1-169 isoform P01116-2 G12D): as above

SMILES | IC50 [1] | IC50 [2] | IC50 ([3]; Homo sapiens) | IC50 ([4]; Homo sapiens, 144 h) | IC50 ([5]; Homo sapiens, ASPC1, 144 h) | IC50 [3] | IC50 [4] | IC50 [5]
C#Cc1cccc2cc(O)cc(-c3c(C(=C)C)cc4c(N5CC6CCC(C5)N6)nc(OCC5(CN6CCOCC6)CC5)nc4c3F)c12 [Compound 105] | 1.57 nM | 15.6 nM | 13 nM | 18.4 nM | 63.3 nM | – | – | –
C#Cc1cccc2cc(O)cc(-c3c(C4CC4)cc4c(N5CC6CCC(C5)N6)nc(OCC5(CN6CCOCC6)CC5)nc4c3F)c12 (single isomer, unassigned) [Compound 38B] | 0.727 nM | 13.2 nM | – | – | – | 12.4 nM | 10.5 nM | 158 nM
C#Cc1cccc2cc(O)cc(-c3ccc4c(N5CC6CCC(C5)N6)nc(OCC5(CN6CCC(OC)CC6)CC5)nc4c3F)c12 [Compound 117] | 17.1 nM | 129 nM | 10.3 nM | 12.4 nM | 85.6 nM | – | – | –
CCc1cccc2cc(O)cc(-c3ccc4c(N5CC6CCC(C5)N6)nc(OC[C@@]56CCCN5C[C@H](F)C6)nc4c3F)c12 [Compound 91] | 4.82 nM | 102 nM | 8.54 nM | 12.3 nM | 31.6 nM | – | – | –
C#Cc1cccc2cc(O)cc(-c3cc4nc(OC[C@@]56CCCN5C[C@H](F)C6)nc(N5CC6CCC(C5)N6)c4cc3C)c12 [Compound 75] | 9.26 nM | 84.2 nM | 14.6 nM | 5.64 nM | 62.3 nM | – | – | –
C#Cc1cccc2cc(O)cc(-c3cc4nc(OCC5(CN6CCOCC6)CC5)nc(N5CC6CCC(C5)N6)c4cc3OC)c12 [Compound 120] | 37.4 nM | 307 nM | 19.9 nM | 28.1 nM | 180 nM | – | – | –
C#Cc1c(F)ccc2cc(O)cc(-c3c(C4CC4)cc4c(N5CC6CCC(C5)N6)nc(OC[C@@]56CCCN5C[C@H](F)C6)nc4c3F)c12 [Compound 71] | 60 nM | 73.2 nM | 9.31 nM | 205 nM | 723 nM | – | – | –
C#Cc1cccc2cc(O)cc(-c3cc4nc(OC[C@@]56CCCN5C[C@H](F)C6)nc(N5CC6CCC(C5)N6)c4cc3F)c12 [Compound 79] | 4.81 nM | 130 nM | 6.66 nM | 7.75 nM | 109 nM | – | – | –
C#Cc1cccc2cc(O)cc(-c3c(Cl)cc4c(N5CC6CCC(C5)N6)nc(OCC5(CN6CCOCC6)CC5)nc4c3F)c12 [Compound 35] | 10.4 nM | 113 nM | 32.2 nM | 8.58 nM | 99.3 nM | – | – | –
Oc1cc(-c2ccc3c(N4CC5CCC(C4)N5)nc(OCC4(CN5CCOCC5)CC4)nc3c2F)c2c(Cl)cccc2c1 [Compound 88] | 16.7 nM | 148 nM | 35.7 nM | 17 nM | 153 nM | – | – | –
C#Cc1cccc2cc(O)cc(-c3cc4nc(OCC5(CN6CCOCC6)CC5)nc(N5CC6CCC(C5)N6)c4cc3C(F)(F)F)c12 [Compound 119] | 42.9 nM | 200 nM | 113 nM | 81.6 nM | 362 nM | – | – | –
C#Cc1cccc2cc(O)cc(-c3ccc4c(N5CC6CCC(C5)N6)nc(OCC5(CN6CCOCC6)CC5)nc4c3C)c12 [Compound 132] | 25.7 nM | 794 nM | 96.4 nM | 33.2 nM | 111 nM | – | – | –
C#Cc1cccc2cc(O)cc(-c3ccc4c(N5CC6CCC(C5)N6)nc(OCC5(CN6CCSCC6)CC5)nc4c3F)c12 [Compound 78] | 8.8 nM | 99.8 nM | 31.6 nM | 4.04 nM | 30.3 nM | – | – | –
C#Cc1cccc2cc(O)cc(-c3ccc4c(N5CC6CCC(C5)N6)nc(OCC5(CN6CCOCC6)CC5)nc4c3Cl)c12 [Compound 121] | 28.8 nM | 318 nM | 19.7 nM | 11.2 nM | 67 nM | – | – | –
C#Cc1cccc2cc(O)cc(-c3ccc4c(N5CC6CCC(C5)N6)nc(OCC5(CN6CCO[C@@H](C)C6)CC5)nc4c3F)c12 [Compound 80] | 3.76 nM | 69.4 nM | 3.63 nM | 5.26 nM | 24.1 nM | – | – | –
